Experimental findings from paper PMC5729930, “Bitopic fluorescent antagonists of the A2A adenosine receptor based on pyrazolo[4,3-e][1,2,4]triazolo[1,5-c]pyrimidin-5-amine functionalized congeners” (MedChemComm, 2017) are described below.

pKd: −log10 of the molar value.

One assay has as its target T1, mA1AR (Mus musculus, UniProt Q60612).
T1 construct: expressed in transfected cells; host or cells: HEK-293
T1 sequence (Q60612 1-326): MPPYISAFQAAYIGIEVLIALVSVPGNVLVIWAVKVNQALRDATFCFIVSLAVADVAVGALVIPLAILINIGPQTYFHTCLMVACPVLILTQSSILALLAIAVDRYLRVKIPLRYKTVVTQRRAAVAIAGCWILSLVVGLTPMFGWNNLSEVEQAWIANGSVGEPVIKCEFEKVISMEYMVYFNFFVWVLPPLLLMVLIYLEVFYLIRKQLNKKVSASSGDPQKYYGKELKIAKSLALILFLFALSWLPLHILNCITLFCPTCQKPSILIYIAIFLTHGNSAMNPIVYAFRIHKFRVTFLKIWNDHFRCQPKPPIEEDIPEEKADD
The experiment in a line: Competition radioligand binding, mA1AR. Particulars: for inhibition at 10 µM: mouse A1AR, percent inhibition at 10 μM. On the procedure:
The affinity of the amine congeners and other antagonists was measured using standard radioligand binding assays for hA1, A2A and A3ARs (Table 1).[1],[13],[14],[22] Membranes of human embryonic kidney (HEK)293 cells expressing the AR of interest were used in the assay. Primary amine congeners 6a–6d containing spacers of 2–5 methylenes were similar in terms of hA2AAR affinity (Ki 6–9 nM), with the butylamino congener 6c displaying the highest A2AAR selectivity in the series. The affinity of this compound for the hA3AR was determined to be 6.0 μM, with only slightly higher hA1AR affinity. Homologation to 6 methylenes in compound 6e lowered A2AAR affinity. […] No dependence of the affinity on the chain length was evident when comparing AlexaFluor647 conjugates 9 and 10. […]
Radioligand binding assays: Cell membranes were prepared as reported.1
Binding assays were carried out using standard radioligands and membrane preparations from HEK-293 cells stably expressing the human (h) A1, A2A or A3ARs or mouse (m) A1, A2A or A3ARs. The radioligands used were: A1AR, [3H]8-cyclopentyl-1,3-dipropylxanthine 14; A2AAR, [3H]2; A3AR, [125I]N6-(4-amino-3-iodobenzyl)adenosine-5′-N-methyluronamide 16. The radioligand for archival A2AAR affinity data presented in Table 1 was [3H]2-[p-(2-carboxyethyl)phenyl-ethylamino]-5′-N-ethylcarboxamidoadenosine 15. Nonspecific binding was determined using 10 µM 8-[4-[[[[(2-aminoethyl)amino]carbonyl]methyl]oxy]phenyl]-1,3-dipropylxanthine 17 (A1AR and A2AAR) or 10 µM adenosine-5′-N-ethyluronamide 18 (A3AR). HEK-293 cells expressing recombinant mA1, A2A, or A3AR […]
Protein was determined as reported.2 In all the binding experiments, IC50 values and Ki values were calculated using GraphPad Prism software (San Diego, CA). Values are expressed as mean±SEM. […]
Med. Chem. Comm., 2015, 6:555-563.
2. Bradford, M. M. A rapid and sensitive method for the quantitation of microgram quantities of protein utilizing the principle of protein -dye binding. Anal. Biochem. 1976, 72, 248-254.

The next assay concerns the target T2, hA2AAR (Homo sapiens, UniProt P29274).
T2 construct: expressed in transfected cells
The experiment in a line: Flow cytometry saturation binding of fluorescent antagonists in whole cells. The format is cell-based. Particulars: hA2AAR-expressing HEK-293 cells; for nonspecific binding: result in words. On the procedure: Compounds 11 and 12 were tested as fluorescent tracers for flow cytometry of HEK-293 cells expressing the hA2AAR (Fig. 4A). […] Thus, 11 tended to bind non-specifically to hydrophobic membranes by undetermined mechanisms. […]. For inhibition studies, the cells were co-incubated for one hour prior to flow cytometry with fluorescent probe 12 (10 nM) and a test antagonist. […]
Fig. 4 Saturation of fluorescent antagonists 11 (A) and 12 (B) in hA2AAR-expressing HEK-293 cells measured using flow cytometry following a 1 h incubation at 37 °C. Non-specific binding was determined with 10 μM 3. Results are expressed as the mean ± SEM. The Kd value calculated from Fig. 4B is listed in the text.
Cell culture for membrane binding assays and flow cytometry: HEK-293 cells stably expressing the A2AAR were grown in Dulbecco’s Modified Eagle’s Medium (DMEM) with 10% FBS, 100 units/ml penicillin, […] streptomycin, 2 mM L-glutamine and 0.500 mg/mL G418 Sulfate (Geneticin). Cells were maintained in a humidified atmosphere and sterile incubation conditions held at 37 °C and 5% CO2 (g). A day prior to the experiment, cells were plated on a 96 -well clear and flat bottom plate at 80 -90% confluency in 100 µL of medium. […]
Fluorescent binding studies: All binding studies were done in triplicate. For saturation binding studies, cells were treated with 50 µL of 11 (MRS 7396) or 12 (MRS 7416), to achieve a final concentration from 0.19 to 400 nM, and 50 µL of Tris-HCl buffer containing 10 mM MgCl2. Non-specific binding was determined with SCH442416 3 (final concentration of 10 µM, in Tris-HCl buffer). For displacement experiments, cells were incubated simultaneously with 50 µL of 40 nM 11 or 12 (final concentration 10 nM) and 50 µL of the non-labeled displacing ligand at increasing concentrations. The total binding was measured in the absence of a displacing ligand, and non-specific binding was determined with 10 µM 3.
After 1 h at 37 °C (for both the saturation and displacement experiments), the medium was removed and the cells were carefully washed two times with 150 µL of ice-cold PBS (not containing Mg+2 or Ca+2).
The cells were treated with 40 µL of Corning Cellstripper (Mediatech, Manassas, VA) per well and then incubated at 37 °C for 10 min. To each well was subsequently added 160 µL of PBS (not containing Mg+2 or Ca+2), and the cell fluorescence was analyzed with a BD FACSCalibur flow cytometer (Becton, Dickinson and Co., Franklin Lakes, NJ) with excitation at 635 nm (red diode laser, for 11) or 488 nm (blue laser, for 12) in conjunction with the software from BD Bioscience PlateManager and CellQuest. […]
2. Bradford, M. M. A rapid and sensitive method for the quantitation of microgram quantities of protein utilizing the principle of protein -dye binding. […]
On the technique in general: Flow cytometry measures light scatter and fluorescence of single cells or particles in a stream.

T2 sequence (P29274 whole entry): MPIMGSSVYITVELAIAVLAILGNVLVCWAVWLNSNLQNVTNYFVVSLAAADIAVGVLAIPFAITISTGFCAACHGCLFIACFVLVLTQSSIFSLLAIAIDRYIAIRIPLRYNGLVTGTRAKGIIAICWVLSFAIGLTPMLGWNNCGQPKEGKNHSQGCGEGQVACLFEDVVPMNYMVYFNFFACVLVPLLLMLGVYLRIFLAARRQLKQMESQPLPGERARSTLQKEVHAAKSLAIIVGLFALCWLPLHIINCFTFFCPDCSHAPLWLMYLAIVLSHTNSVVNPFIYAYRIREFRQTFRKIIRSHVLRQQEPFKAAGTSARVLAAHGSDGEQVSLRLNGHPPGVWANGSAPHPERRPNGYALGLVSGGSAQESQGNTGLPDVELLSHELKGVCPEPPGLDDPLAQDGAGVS

In the case of `Nc1nc2c(cnn2CCCc2ccc(OCC(=O)NCCCCNC(=O)CCCCCNC(=O)COc3ccc(/C=C/C4=[N+]5C(=Cc6ccc(-c7cccs7)n6[B-]5(F)F)C=C4)cc3)cc2)c2nc(-c3ccco3)nn12` [compound 11], the inhibition – broadly, the drop in the measured response relative to a control, in per cent – at 10 µM on mA1AR was found to be 0%. The “specific binding, % of the total” value at hA2AAR (1 h 37 °C, nonspecific with 10 μM 3) is recorded as below 25%. At hA2AAR, the nonspecific binding entry is listed as “high nonspecific binding”.

As for `CCN(CC)CC.CCN(CC)CC.N=c1ccc2c(-c3ccc(C(=O)NCCCCNC(=O)COc4ccc(CCCn5ncc6c5nc(N)n5nc(-c7ccco7)nc65)cc4)cc3C(=O)O)c3ccc(N)c(S(=O)(=O)O)c3oc-2c1S(=O)(=O)O` [compound 12], 10 µM produced 0% inhibition at mA1AR. On hA2AAR (1 h 37 °C), the pKd – broadly, −log10 of the Kd, conventionally taken in molar units – is 7.34. For the same compound, the nonspecific binding entry at hA2AAR is listed as “low nonspecific binding”.

Regarding `N.Nc1nc2c(cnn2CCCc2ccc(OCc3ccc(S(=O)(=O)O)cc3)cc2)c2nc(-c3ccco3)nn12` [compound 13], the inhibition at 10 µM on mA1AR was 21%. Further, the “binding to the mA1AR” value on mA1AR (result in words) was “insignificant”.
